Tests used:
[1] = proposed; reference not given; cited from earlier work
EAE C57BL/6 mice = assay: MOG35-55 induced EAE in C57BL/6 mice, treatment with TG2 inhibitors; type: in vivo, mouse; conditions: for loss of body weight compared to vehicle / severity of motor symptoms compared to vehicle: 25 mg/kg i.p. twice daily from onset of EAE symptoms
Source text: All animal experiments were approved by the animal ethical committee of the VU University Medical Center and carried out within the animal facility of the Vrije Universiteit Amsterdam (protocol number ANW14-02). C57BL/6 (C57BL/6JOlaHsd) mice were purchased from Harlan (The Netherlands) at an age of 10 weeks and acclimatized to the new environment with water and food access ad libitum for 2 weeks before EAE induction. Humane endpoints were taken into account to prevent unnecessary suffering of the animals.
Active EAE was induced with the myelin oligodendrocyte glycoprotein peptide amino acids 35-55 (MOG35-55) from a EAE induction kit (Hooke laboratories), according to the provided protocol. In short, mice were injected subcutaneously in the upper and lower back with 100 μl of an emulsion of MOG35-55 in complete Freund’s adjuvant (CFA, containing heat inactivated Mycobacterium tuberculosis) each. At 3 hours and 26 hours after the subcutaneous injection of the emulsion, mice received an intraperitoneal injection of 150 ng pertussis toxin dissolved in PBS (volume: 0.1 ml). Disease symptoms and bodyweight were assessed daily starting from day 7 after immunization according to the following scale: 0 no disease, 0.5: partial tail weakness, 1: tail paralysis, 2: hind limb weakness, 3: partial hind limb paralysis, 4: complete hind limb paralysis, 5: moribund, dead.
The mice were injected twice daily with BJJF078 (n = 11) or ERW1041 (n = 12), starting from the onset of EAE symptoms until the end of the experiment (day 21/day 28 after immunization). The EAE animals were injected intraperitoneally with an inhibitor dose of 25 mg/kg bodyweight (i.e. ~100 μl) containing 20% DMSO, while the corresponding control groups (n = 12 and n = 10) were injected with PBS in 20% DMSO.

[2] = system: inflammatory mediator mRNA in spinal cord; assay: qPCR of inflammation-related genes in spinal cord of EAE mice; type: in vivo, mouse; conditions: normalized to GAPDH
Protocol: Total RNA from snap frozen spinal cord (pooled cervical, thoracic and lumbar region) was isolated using Trizol (Invitrogen) according to the manufacturer’s protocol. RNA concentration and purity was determined with a NanoDrop 2000 spectrophotometer (Thermo Fisher Scientific). Purity was accepted with a 260/230 nm absorbance ratio of 2.00–2.20 and a 260/280 ratio of 1.90.-2.00. For reverse transcription into cDNA, 1 μg of RNA was used with the High-Capacity cDNA Reverse Transcription kit (Life Technologies), using 50 pmol oligo-dT16 primers, according to the manufacturer’s instructions. For quantitative real-time PCR (qPCR), Power SYBR Green Master Mix (Applied Biosystems) was used according to manufacturer’s protocol. Intron-spanning primers (Table 2) were designed with Primer-BLAST [29], purchased from Eurogentec and used at 3.75 pmol per 12.5 ng cDNA in each reaction. Subsequently, qPCR was performed according to the previously published MIQE guidelines. The qPCR reaction was performed in a total volume of 20 μl in MicroAmp Optical 96-well Reaction Plates on a StepOnePlus Real-Time PCR system (Applied Biosystems). The thermal cycling conditions were an initial 10 min at 95°C followed by 50 cycles of 15 s at 95°C and 1 min at 60°C. The reaction specificity was verified by a melt curve analysis. The relative expression level of the target genes was determined by the LinRegPCR software (http://www.hfrc.nl, downloads, applications, lin reg PCR, version 2017) using the following calculation N0 = Nq/ECq (N0 = target quantity, Nq = fluorescence threshold value, E = mean PCR efficiency per amplicon, Cq = threshold cycle. The obtained values were normalized to glyceraldehyde-3-phosphate-dehydrogenase expression (GAPDH).

Compound	inhibitory in vivo half-life [1] [h]	loss of body weight compared to vehicle (EAE C57BL/6 mice)	severity of motor symptoms compared to vehicle (EAE C57BL/6 mice)	average maximal disease score (EAE C57BL/6 mice; 25 mg/kg i.p. twice daily from onset, scale 0-5, vehicle 3.9) [score]	IL-1ra mRNA level in spinal cord versus vehicle ([2]; Fig 7a)	IL-1β mRNA level in spinal cord versus vehicle ([2]; Fig 7b)	IFNγ mRNA level in spinal cord versus vehicle ([2]; Fig 7c)	iNOS mRNA level in spinal cord versus vehicle ([2]; Fig 7e)	TNFα mRNA level in spinal cord versus vehicle ([2]; Fig 7d)
O=C(NCC1CC(Br)=NO1)C1CCCN1C(=O)OCc1cnc2ccccc2c1 (centres unmarked) [ERW1041E, 2-[(3-Bromo-4,5-dihydro-isoxazol-5-ylmethyl)-carbamoyl]-pyrrolidine-1—carboxylic acid quinolin-3-ylmethyl ester]	12	not affected	modest but significant reduction	3.4	not significantly changed	not significantly changed	not significantly changed	slightly but not significantly enhanced	slightly but not significantly enhanced
C=CC(=O)NC1CCN(S(=O)(=O)c2cccc3c(NC(=O)c4ccc(OC)c(OC)c4)cccc23)CC1 [BJJF078, 3,4-Dimethoxy-N-(5-[4-(acryloylamino)piperidine-1-sulfonyl]-naphthalen-1-yl)-benzamide]		no differences	no differences						
